Results reported in patent publication US20260027116A1, “Methods of Treating Chronic Graft-Versus-Host Disease Following Allogeneic Hematopoietic Stem Cell Transplantation” (Kadmon Corporation, LLC, priority 2022, published 2026).

Key:
cGVHD symptom burden = assay: Example 2: 7-day LSS summary score; assay type: in vivo, human; settings: for Clinically significant improvement from baseline (LSS), Overall: decrease ≥ 7 points in LSS score
Procedure: All responses were assessed by the study site investigators.

[1] = test system: chronic graft-versus-host disease (cGVHD); assay: Example 1 phase IIa study: response per 2014 NIH cGVHD criteria (ORR, BOR, DOR, TTR, TTNT, FFS, OS, organ response); assay type: in vivo, human; settings: for DOR, median (95% CI) / TTR, median: responder population
Source text: Eligible patients were allogeneic bone marrow transplant or allogeneic hematopoietic cell transplant (alloHCT) recipients of age≥18 years with persistent cGVHD manifestations after having received one to three prior systemic lines of therapy and who were receiving corticosteroid treatment with or without a calcincurin inhibitor and/or concurrent extracorporeal photopheresis.
Inclusion criteria. Adult male and female subjects at least 18 years of age who had allogenic bone marrow transplant or hematopoietic stem cell transplantation. Received glucocorticoid therapy and calcineurin therapy or glucocorticoid therapy alone for cGVHD at study entry. Participants on calcineurin therapy only, without glucocorticoid therapy, were not eligible. Participants also received other therapies thought not to be immunosuppressive (such as extracorporeal photopheresis; ECP), were considered for enrollment in this study on a case-by-case basis. […] No more than 3 prior lines of treatment for cGVHD. Karnofsky Performance Scale of greater than (>) 40.
Exclusion Criteria. Participant who was pregnant or breastfeeding. Received an investigational GVHD treatment within 28 days of study entry. Had acute GVHD. Taken any medication known to be a moderate or strong inhibitor of the cytochrome (CY) P3A4 isozyme or any drugs that are moderate or strong CYP3A4 inducers. History or other evidence of severe illness or any other conditions that would make the participant, in the opinion of the investigator, unsuitable for the study (such as poorly controlled psychiatric disease or coronary artery disease). Regular and excessive use of alcohol within the 6 months prior to study entry defined as alcohol intake>14 drinks per week in a man or >7 drinks per week in a woman. Approximately 10 grams of alcohol equals one “drink” unit. One unit equals 1 ounce of distilled spirits, one 12-ounce beer, or one 4-ounce glass of wine. Known history of human immunodeficiency virus or active hepatitis C virus or hepatitis B virus. Diagnosed with another malignancy (other than malignancy for which transplant was performed) within 3 years of enrollment, with the exception of completely resected basal cell or squamous cell carcinoma of the skin, resected in situ cervical malignancy, resected breast ductal carcinoma in situ, or low-risk prostate cancer after curative resection. Relapse of the underlying cancer or post-transplant lymphoproliferative disease at the time of screening. […] Taken other immunosuppressant drugs for GVHD, including mammalian target of rapamycin inhibitors (Note: Only steroids, calcineurin inhibitors, and ECP are acceptable). Corrected QT interval using Fridericia's formula >450 milliseconds.
(FIG. 1) Before enrollment of the subsequent cohort, safety data in each previous cohort were analyzed after eight patients reached two months of treatment to assure that there was no safety signal. […] No safety concerns were identified, allowing for planned dose escalation.
Progression was defined per the 2014 NIH cGVHD Consensus Criteria. Long-term follow-up was conducted every 8 weeks until study closeout. […] Screening was conducted within 28 days of the first study dose. Response was initially assessed after two cycles; however, this was amended to evaluate response on day 1 of each cycle, starting at cycle 2 day 1.
All responses were assessed by the investigators.
Assuming a best ORR of 25%, which was determined to be clinically meaningful, the study was expected to have approximately 90% probability to show a response in ≥2 patients per cohort. This study was not powered to show significant differences between cohorts with respect to efficacy, AEs, or PD analyses. The primary analysis was conducted using the safety population, defined as enrolled patients who received ≥1 dose of study medication. The Clopper-Pearson (exact) method was used to construct the two-sided 95% CI for ORR. The Kaplan-Meier (K-M) method was used to calculate estimates of FFS and OS. […]

CC(C)NC(=O)COc1cccc(-c2nc(Nc3ccc4[nH]ncc4c3)c3ccccc3n2)c1 [Belumosudil, 2-{3-[4-(1H-indazol-5-ylamino)-2-quinazolinyl]phenoxy}-N-(propan-2-yl) acetamide]
clinically meaningful LSS improvement, nonresponders (cGVHD symptom burden; 200 mg daily): 29%
clinically meaningful LSS improvement, responders (cGVHD symptom burden; 200 mg daily): 69%
clinically meaningful improvement (≥7-point) in 7-day LSS summary score, mITT (cGVHD symptom burden; 200 mg daily): 59%
clinically meaningful LSS improvement, nonresponders (cGVHD symptom burden; 200 mg twice daily): 33%
clinically meaningful LSS improvement, responders (cGVHD symptom burden; 200 mg twice daily): 71%
clinically meaningful improvement (≥7-point) in 7-day LSS summary score, mITT (cGVHD symptom burden; 200 mg twice daily): 62%
Clinically significant improvement from baseline (LSS), Overall (cGVHD symptom burden; 200 mg daily (n = 66)): 39 (59) n (%)
Clinically significant improvement from baseline (LSS), Overall (cGVHD symptom burden; 200 mg twice daily (n = 66)): 41 (62) n (%)
Clinically significant improvement from baseline (LSS), Overall (cGVHD symptom burden; Total (N = 132)): 80 (61) n (%)
BOR CR, participants (%) ([1]; Cohort 1 200 mg QD): 0 (0%) participants
BOR LOR-M, participants (%) ([1]; Cohort 1 200 mg QD): 2 (12%) participants
BOR LOR-P, participants (%) ([1]; Cohort 1 200 mg QD): 2 (12%) participants
BOR LOR-U, participants (%) ([1]; Cohort 1 200 mg QD): 2 (12%) participants
BOR PR, participants (%) ([1]; Cohort 1 200 mg QD): 11 (65%) participants
FFS, median (95% CI) ([1]; Cohort 1 200 mg QD): 11 (4-na* %) months
ORR subgroup refractory to previous LOT, n/N ([1]; Cohort 1 200 mg QD): 7/11
ORR subgroup severe cGVHD, n/N ([1]; Cohort 1 200 mg QD): 8/12
ORR subgroup ≤2 prior LOTs, n/N ([1]; Cohort 1 200 mg QD): 10/15
ORR subgroup ≤4 organs involved, n/N ([1]; Cohort 1 200 mg QD): 4/8
ORR, % (95% CI) ([1]; Cohort 1 200 mg QD): 65%
TTNT, median (95% CI) ([1]; Cohort 1 200 mg QD): 15 (5-NA* %) months
best response (CR or PR) in Skin, percentage of participants ([1]; Cohort 1 200 mg QD): (23%)
best response in Esophagus, percentage of participants ([1]; Cohort 1 200 mg QD): (50%)
best response in Eyes, percentage of participants ([1]; Cohort 1 200 mg QD): (36%)
best response in Joints and Fascia, percentage of participants ([1]; Cohort 1 200 mg QD): (55%)
best response in Lower GI tract, percentage of participants ([1]; Cohort 1 200 mg QD): (0%)
best response in Lungs, percentage of participants ([1]; Cohort 1 200 mg QD): (0%)
best response in Mouth, percentage of participants ([1]; Cohort 1 200 mg QD): (46%)
best response in Upper GI tract, percentage of participants ([1]; Cohort 1 200 mg QD): (100%)
DOR, median (95% CI) ([1]; Cohort 1, 200 mg QD): 40 (8-na* %) weeks
TTR, median ([1]; Cohort 1, 200 mg QD): 8.14 weeks
BOR CR, participants (%) ([1]; Cohort 2 200 mg BID): 0 (0%) participants
BOR LOR-M, participants (%) ([1]; Cohort 2 200 mg BID): 1 (6%) participants
BOR LOR-P, participants (%) ([1]; Cohort 2 200 mg BID): 1 (6%) participants
BOR LOR-U, participants (%) ([1]; Cohort 2 200 mg BID): 3 (19%) participants
BOR PR, participants (%) ([1]; Cohort 2 200 mg BID): 11 (69%) participants
FFS, median (95% CI) ([1]; Cohort 2 200 mg BID): 10 (4-19%) months
ORR subgroup refractory to previous LOT, n/N ([1]; Cohort 2 200 mg BID): 6/9
ORR subgroup severe cGVHD, n/N ([1]; Cohort 2 200 mg BID): 9/14
ORR subgroup ≤2 prior LOTs, n/N ([1]; Cohort 2 200 mg BID): 5/8
ORR subgroup ≤4 organs involved, n/N ([1]; Cohort 2 200 mg BID): 8/10
ORR, % (95% CI) ([1]; Cohort 2 200 mg BID): 69%
TTNT, median (95% CI) ([1]; Cohort 2 200 mg BID): 10 (4-19%) months
best response (CR or PR) in Skin, percentage of participants ([1]; Cohort 2 200 mg BID): (17%)
best response in Eyes, percentage of participants ([1]; Cohort 2 200 mg BID): (36%)
best response in Joints and Fascia, percentage of participants ([1]; Cohort 2 200 mg BID): (46%)
best response in Liver, percentage of participants ([1]; Cohort 2 200 mg BID): (50%)
best response in Lower GI tract, percentage of participants ([1]; Cohort 2 200 mg BID): (100%)
best response in Lungs, percentage of participants ([1]; Cohort 2 200 mg BID): (0%)
best response in Mouth, percentage of participants ([1]; Cohort 2 200 mg BID): (46%)
best response in Upper GI tract, percentage of participants ([1]; Cohort 2 200 mg BID): (100%)
DOR, median (95% CI) ([1]; Cohort 2, 200 mg BID): 11 (2-35%) weeks
TTR, median ([1]; Cohort 2, 200 mg BID): 8.14 weeks
BOR CR, participants (%) ([1]; Cohort 3 400 mg QD): 0 (0%) participants
BOR LOR-M, participants (%) ([1]; Cohort 3 400 mg QD): 0 (0%) participants
BOR LOR-P, participants (%) ([1]; Cohort 3 400 mg QD): 1 (5%) participants
BOR LOR-U, participants (%) ([1]; Cohort 3 400 mg QD): 4 (19%) participants
BOR PR, participants (%) ([1]; Cohort 3 400 mg QD): 12 (57%) participants
FFS, median (95% CI) ([1]; Cohort 3 400 mg QD): 10 (3-16%) months
ORR subgroup refractory to previous LOT, n/N ([1]; Cohort 3 400 mg QD): 9/15
ORR subgroup severe cGVHD, n/N ([1]; Cohort 3 400 mg QD): 8/16
ORR subgroup ≤2 prior LOTs, n/N ([1]; Cohort 3 400 mg QD): 8/12
ORR subgroup ≤4 organs involved, n/N ([1]; Cohort 3 400 mg QD): 7/9
ORR, % (95% CI) ([1]; Cohort 3 400 mg QD): 62%
TTNT, median (95% CI) ([1]; Cohort 3 400 mg QD): 14 (3-NA %) months
best response (CR or PR) in Skin, percentage of participants ([1]; Cohort 3 400 mg QD): (13%)
best response in Esophagus, percentage of participants ([1]; Cohort 3 400 mg QD): (25%)
best response in Eyes, percentage of participants ([1]; Cohort 3 400 mg QD): (24%)
best response in Joints and Fascia, percentage of participants ([1]; Cohort 3 400 mg QD): (42%)
best response in Lower GI tract, percentage of participants ([1]; Cohort 3 400 mg QD): (0%)
best response in Lungs, percentage of participants ([1]; Cohort 3 400 mg QD): (30%)
best response in Mouth, percentage of participants ([1]; Cohort 3 400 mg QD): (46%)
best response in Upper GI tract, percentage of participants ([1]; Cohort 3 400 mg QD): (50%)
DOR, median (95% CI) ([1]; Cohort 3, 400 mg QD): 16 (4-38%) weeks
TTR, median ([1]; Cohort 3, 400 mg QD): 8.07 weeks
2-year OS rate ([1]; Example 1): 82%
12-month FFS rate with response ([1]; Example 1): 24%
ORR among patients with nonsevere cGVHD ([1]; Example 1): 83%
median DOR across all responders ([1]; Example 1): 35 weeks
share of all responses achieved by first response assessment at week 8 ([1]; Example 1): > 75%
FFS rate ([1]; Example 1, at 6 months): 76%
FFS rate ([1]; Example 1, at 12 months): 47%
median TTNT ([1]; Example 1, pooled): 14 months
patients with progression in joints ([1]; Example 1, safety population (FIG. 3B)): 11 patients
ORR subgroup refractory to previous LOT, % (95% CI) ([1]; Total, N=54): 63%
ORR subgroup severe cGVHD, % (95% CI) ([1]; Total, N=54): 60%
ORR subgroup ≤2 prior LOTs, % (95% CI) ([1]; Total, N=54): 66%
ORR subgroup ≤4 organs involved, % (95% CI) ([1]; Total, N=54): 70%
ORR, % (95% CI) ([1]; Total, N=54): 65%
ORR subgroup refractory to previous LOT, n/N ([1]; Total, N=54, listed as KD025): 22/35
ORR subgroup severe cGVHD, n/N ([1]; Total, N=54, listed as KD025): 25/42
ORR subgroup ≤2 prior LOTs, n/N ([1]; Total, N=54, listed as KD025): 23/35
ORR subgroup ≤4 organs involved, n/N ([1]; Total, N=54, listed as KD025): 19/27
